The subject of this data set is HEK293 NF-kB-luciferase reporter cells. Description: NF-kB luciferase reporter activity, robust Z-score vs plate median (robust Z-score (log luminescence)); higher = stronger NF-kB reporter activation. As to conditions: TNF treatment time 8.5 h, transfection time 72 h. As for the experimental part:
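Primary screen of an Ambion Pre-miR miRNA mimic library (miRBase v8.0, 1.6 pmol/well, 384-well, duplicate) reverse-transfected into HEK293 cells stably expressing a 5x NF-kB firefly luciferase reporter. After 72 h the cells were treated with vehicle or TNF (40 ng/mL) for 8.5 h and luminescence was read (BriteLite). Raw luminescence was log-transformed and converted to a robust Z-score per plate: (x - plate median)/plate MAD. Sequence given is the mature miRNA strand of the double-stranded mimic.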

± gives the standard deviation of the averaged measurements.

As to CAAAGCGCUCCCCUUUAGAGGU, the “NF-kB luciferase reporter activity” value (TNF 0 ng/mL) was found to be 0 and the “NF-kB luciferase reporter activity” value (TNF 40 ng/mL) worked out at 0.254 ± 0.098.
Turning to UCGUGCAUCCCUUUAGAGUGUU, the “NF-kB luciferase reporter activity” value (TNF 0 ng/mL) is 1.73 ± 0.3 and the “NF-kB luciferase reporter activity” value (TNF 40 ng/mL) worked out at 1.07 ± 0.079.
The like results for ACUUUAACAUGGAAGUGCUUUCU were, in that order, -0.37 ± 0.4 and 0.272 ± 0.026.
In the case of AUAAGACGAGCAAAAAGCUUGU, the “NF-kB luciferase reporter activity” value reads like this: (TNF 0 ng/mL) -0.187 ± 0.52; (TNF 40 ng/mL) -1.62 ± 0.032.
The like results for CAGUGCAAUAGUAUUGUCAAAGC were, in that order, 0.753 ± 0.32 and 0.85 ± 0.028.
The like results for UUUCAAGCCAGGGGGCGUUUUUC were, in that order, 0.765 ± 0.45 and 0.885 ± 0.064.
The like results for AAGUGCUUCCUUUUAGAGGGUU were, in that order, -1.7 ± 0.2 and -1.29 ± 0.042.
Take AUUCCUAGAAAUUGUUCAUA: the “NF-kB luciferase reporter activity” value runs as follows: (TNF 0 ng/mL) 0.0899 ± 0.13; (TNF 40 ng/mL) 0.855 ± 0.032.
The like results for CACUCAGCCUUGAGGGCACUUUC were, in that order, -0.36 ± 0.51 and 1.02 ± 0.045.
CAGCAGCAAUUCAUGUUUUGAA: the “NF-kB luciferase reporter activity” value (TNF 0 ng/mL) was 1.16 ± 0.43 and the “NF-kB luciferase reporter activity” value (TNF 40 ng/mL) came to 0.65 ± 0.09.
The like results for UUCAAGUAAUUCAGGAUAGGUU were, in that order, 0.218 ± 0.18 and 0.0275 ± 0.0019.
The like results for AGGUUACCCGAGCAACUUUGCA were, in that order, 0.305 ± 0.58 and -0.0618 ± 0.016.
The like results for AUCACACAAAGGCAACUUUUGU were, in that order, -0.634 ± 0.41 and -0.131 ± 0.049.
With GCCCCUGGGCCUAUCCUAGAA, the “NF-kB luciferase reporter activity” value was determined as 1.22 ± 0.89 (TNF 0 ng/mL) and 0.489 ± 0.046 (TNF 40 ng/mL).
The like results for UAGCAGCGGGAACAGUUCUGCAG were, in that order, 0.878 ± 0.18 and 0.834 ± 0.021.
The like results for CUACAAAGGGAAGCACUUUCUC were, in that order, -1.11 ± 0.64 and -1.63 ± 0.19.
The like results for AAAAUGGUUCCCUUUAGAGUGUU were, in that order, -1.7 ± 0.2 and -2.14 ± 0.057.
For the sequence UUUUGCACCUUUUGGAGUGAA, the “NF-kB luciferase reporter activity” value was 1.1 ± 0.92 (TNF 0 ng/mL) and -0.163 ± 0.01 (TNF 40 ng/mL).
The like results for AGAUCGACCGUGUUAUAUUCGC were, in that order, 0.225 ± 0.32 and -0.0562 ± 0.026.
The like results for CUUUCAGUCGGAUGUUUACAGC were, in that order, -0.449 ± 0.15 and 1 ± 0.025.
The like results for GUGUCUUUUGCUCUGCAGUCA were, in that order, 0.568 ± 0.32 and 0.168 ± 0.045.
Consider AACUGGCCCUCAAAGUCCCGCUUU, for which the “NF-kB luciferase reporter activity” value (TNF 0 ng/mL) worked out at 1.11 ± 0.46 and the “NF-kB luciferase reporter activity” value (TNF 40 ng/mL) was -0.934 ± 0.19.
The like results for UAUGUGGGAUGGUAAACCGCUU were, in that order, 0.166 ± 0.72 and -1.21 ± 0.026.
The like results for UCUCUGGAGGGAAGCACUUUCUG were, in that order, -0.463 ± 0.65 and -0.521 ± 0.11.
The like results for ACUAGACUGAAGCUCCUUGAGG were, in that order, -0.0115 ± 0.13 and 0.7434 ± 0.0017.
With UCAGGCUCAGUCCCCUCCCGAU, the “NF-kB luciferase reporter activity” value by setting is: (TNF 0 ng/mL) -0.315 ± 0.14; (TNF 40 ng/mL) -0.227 ± 0.1.
The like results for UUCACAGUGGCUAAGUUCCGC were, in that order, 0.203 ± 0.55 and 0.955 ± 0.096.
The like results for GAGGUUGUCCGUGGUGAGUUCG were, in that order, -0.468 ± 0.88 and -2.08 ± 0.48.
The like results for CCACACCGUAUCUGACACUUU were, in that order, -0.604 ± 0.17 and 0.0155 ± 0.04.
As for AAUCAUACAGGGACAUCCAGUU, the “NF-kB luciferase reporter activity” value is -0.326 ± 0.46 (TNF 0 ng/mL) and 0.117 ± 0.12 (TNF 40 ng/mL).
The like results for AUUGACACUUCUGUGAGUAG were, in that order, -0.231 ± 0.69 and -0.474 ± 0.021.
The like results for AAUUGCACUUUAGCAAUGGUGA were, in that order, 0.232 ± 0.073 and -0.707 ± 0.14.
The like results for AUCAUAGAGGAAAAUCCACGU were, in that order, -0.604 ± 0.17 and -0.743 ± 0.14.
With CUGUGCGUGUGACAGCGGCUGA, the “NF-kB luciferase reporter activity” value reads like this: (TNF 0 ng/mL) 0.091 ± 0.43; (TNF 40 ng/mL) -2.3857 ± 0.00042.
On to CCUCUGGGCCCUUCCUCCAG, for which the “NF-kB luciferase reporter activity” value reads like this: (TNF 0 ng/mL) 2.88 ± 0.89; (TNF 40 ng/mL) -0.776 ± 0.1.
The like results for CUCUAGAGGGAAGCACUUUCUCU were, in that order, 1.17 ± 0.88 and 0.571 ± 0.12.
The like results for AGGGCCCCCCCUCAAUCCUGU were, in that order, 1.69 ± 0.94 and 0.259 ± 0.1.
The like results for UUCUCCAAAAGAAAGCACUUUCUG were, in that order, -0.171 ± 0.24 and -1.816 ± 0.017.
As to UAAGUGCUUCCAUGUUUGAGUGU, the “NF-kB luciferase reporter activity” value was -1.48 ± 0.11 (TNF 0 ng/mL) and -0.618 ± 0.12 (TNF 40 ng/mL).
The like results for AAAGUGCUUCCUUUUAGAGGG were, in that order, -1.32 ± 0.33 and -0.578 ± 0.11.
The like results for CAAAGCGCUUCCCUUUGGAGC were, in that order, 0.207 ± 0.18 and 0.305 ± 0.0055.
The like results for UCACUCCUCUCCUCCCGUCUUCU were, in that order, 2.53 ± 0.2 and 1.87 ± 0.1.
UGUCUUGCAGGCCGUCAUGCA: the “NF-kB luciferase reporter activity” value by setting is: (TNF 0 ng/mL) 1.79 ± 0.31; (TNF 40 ng/mL) -0.465 ± 0.12.
For the sequence AAAAGCUGGGUUGAGAGGGCGAA, the “NF-kB luciferase reporter activity” value is, setting by setting: (TNF 0 ng/mL) -0.418 ± 0.33; (TNF 40 ng/mL) -0.74 ± 0.12.
Take CUCUUGAGGGAAGCACUUUCUGUU: the “NF-kB luciferase reporter activity” value worked out at 1.14 ± 0.36 (TNF 0 ng/mL) and 0.555 ± 0.059 (TNF 40 ng/mL).
The like results for CUCCAGAGGGAUGCACUUUCU were, in that order, -1.38 ± 0.64 and -1.09 ± 0.051.
The like results for CAUCUGGAGGUAAGAAGCACUUU were, in that order, 0.889 ± 0.59 and -1.17 ± 0.072.
The like results for AAAGUGCUUCUCUUUGGUGGGUU were, in that order, -1.14 ± 0.07 and -0.144 ± 0.11.
With CAAAGUGCCUCCCUUUAGAGUGU, the “NF-kB luciferase reporter activity” value runs as follows: (TNF 0 ng/mL) 0.645 ± 0.51; (TNF 40 ng/mL) 0.811 ± 0.028.
The like results for UAAUACUGCCGGGUAAUGAUGG were, in that order, 0.0214 ± 0.44 and 1.06 ± 0.17.
The like results for UGAAGGUCUACUGUGUGCCAG were, in that order, -0.779 ± 1.1 and -1.55 ± 0.32.
The like results for AAAGUGCCUCCUUUUAGAGUGU were, in that order, -1.14 ± 0.07 and -0.561 ± 0.048.
In the case of UGCUGACUCCUAGUCCAGGGC, the “NF-kB luciferase reporter activity” value runs as follows: (TNF 0 ng/mL) -1.7 ± 0.2; (TNF 40 ng/mL) -3.27 ± 0.18.
The like results for UGAGAACUGAAUUCCAUAGGCU were, in that order, -1.29 ± 0.15 and 0.439 ± 0.12.
The like results for CGCAUCCCCUAGGGCAUUGGUGU were, in that order, -0.887 ± 0.054 and -0.479 ± 0.1.
The like results for GGUAGAUUCUCCUUCUAUGAG were, in that order, -0.702 ± 0.69 and -1.25 ± 0.063.
Turning to AUCAGCAAACAUUUAUUGUGUG, the “NF-kB luciferase reporter activity” value runs as follows: (TNF 0 ng/mL) -0.389 ± 0.14; (TNF 40 ng/mL) -0.5 ± 0.044.
The like results for AAGUGCUGUCAUAGCUGAGGUC were, in that order, -0.706 ± 0.31 and -0.185 ± 0.21.
The like results for UCAGUCUCAUCUGCAAAGAAG were, in that order, 2.97 ± 0.59 and 1.58 ± 0.083.
Take CUCUAGAGGGAAGCGCUUUCUGUU: the “NF-kB luciferase reporter activity” value runs as follows: (TNF 0 ng/mL) 1.69 ± 0.18; (TNF 40 ng/mL) 0.579 ± 0.019.
Take CACCCGUAGAACCGACCUUGCG: the “NF-kB luciferase reporter activity” value (TNF 0 ng/mL) was -0.634 ± 0.41 and the “NF-kB luciferase reporter activity” value (TNF 40 ng/mL) turned out to be 0.175 ± 0.09.
The like results for GCAAAGCACACGGCCUGCAGAGA were, in that order, -0.287 ± 0.28 and -0.658 ± 0.027.
The like results for UGAGGUAGGAGGUUGUAUAGU were, in that order, -0.314 ± 0.58 and -0.881 ± 0.37.
In the case of UAACAGUCUCCAGUCACGGCC, the “NF-kB luciferase reporter activity” value is -0.0296 ± 0.44 (TNF 0 ng/mL) and -0.939 ± 0.1 (TNF 40 ng/mL).
With AUCAUAGAGGAAAAUCCAUGUU, the “NF-kB luciferase reporter activity” value (TNF 0 ng/mL) was -0.92 ± 0.38 and the “NF-kB luciferase reporter activity” value (TNF 40 ng/mL) was -1.03 ± 0.066.
The like results for AGAGGCUGGCCGUGAUGAAUUC were, in that order, 0.912 ± 0.72 and -1.96 ± 0.079.
The like results for AGUGGGGAACCCUUCCAUGAGGA were, in that order, -0.516 ± 0.47 and -2.85 ± 0.1.
With CUGGAUGGCUCCUCCAUGUCU, the “NF-kB luciferase reporter activity” value by setting is: (TNF 0 ng/mL) 0.547 ± 0.21; (TNF 40 ng/mL) -0.772 ± 0.095.
The like results for AAAGUGCUUCCUUUUUGAGGG were, in that order, -1.7 ± 0.2 and -0.497 ± 0.23.
The like results for UUCUCCAAAAGGGAGCACUUUC were, in that order, 1.07 ± 0.25 and -1.42 ± 0.11.
The like results for AUUCUGCAUUUUUAGCAAGU were, in that order, 3.61 ± 0.35 and -0.325 ± 0.13.
